Earlier results, collected in patent publication US20240228966A1, “UROLITHIN FOR INCREASING STEM CELL FUNCTION” (SOCIETE DES PRODUITS NESTLE S.A., priority 2021, published 2024).

Tested on: human HSCs
Settings: culture media supplemented with nicotinamide riboside; cited from earlier work

For `NC(=O)c1ccc[n+]([C@@H]2O[C@H](CO)[C@@H](O)[C@H]2O)c1` [nicotinamide riboside], the “levels of engraftment in recipient humanised mice” value is listed as “significantly higher levels of engraftment”.
